In US11174268B2, “Benzenesulfonamide compouds and their use as therapeutic agents” (Xenon Pharmaceuticals Inc., priority 2016, dated 2021):

Legend:
[1] = biological target: NaV1.6 (Homo sapiens (Human), UniProt Q9UQD0); test: Sodium Influx Assay (Flux), NaV1.6; assay type: cell-based; details: Trex HEK293 cells, ANG2 dye, inactivated state;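 note: Tetracycline-induced cells, compounds applied for one hour at room temperature with modulators holding channels open, IC50 from percent inhibition of sodium influx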
[2] = biological target: NaV1.1 (Homo sapiens (Human), UniProt P35498); test: Sodium Influx Assay (Flux), NaV1.1; assay type: cell-based; details: Trex HEK293 cells, ANG2 dye, inactivated state;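 note: channels co-expressed with human β1 subunit and held open by modulators, cells exposed to compounds for one hour at room temperature, IC50 from percent inhibition of influx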
[3] = biological target: NaV1.5 (Homo sapiens (Human), UniProt Q14524); test: Sodium Influx Assay (Flux), NaV1.5; details: read-out: Flux NaV1.5 IC50; Trex HEK293 cells, ANG2 dye, inactivated state
Chain of NaV1.5 (Q14524 other isoform, or with tags, fused parts or gaps): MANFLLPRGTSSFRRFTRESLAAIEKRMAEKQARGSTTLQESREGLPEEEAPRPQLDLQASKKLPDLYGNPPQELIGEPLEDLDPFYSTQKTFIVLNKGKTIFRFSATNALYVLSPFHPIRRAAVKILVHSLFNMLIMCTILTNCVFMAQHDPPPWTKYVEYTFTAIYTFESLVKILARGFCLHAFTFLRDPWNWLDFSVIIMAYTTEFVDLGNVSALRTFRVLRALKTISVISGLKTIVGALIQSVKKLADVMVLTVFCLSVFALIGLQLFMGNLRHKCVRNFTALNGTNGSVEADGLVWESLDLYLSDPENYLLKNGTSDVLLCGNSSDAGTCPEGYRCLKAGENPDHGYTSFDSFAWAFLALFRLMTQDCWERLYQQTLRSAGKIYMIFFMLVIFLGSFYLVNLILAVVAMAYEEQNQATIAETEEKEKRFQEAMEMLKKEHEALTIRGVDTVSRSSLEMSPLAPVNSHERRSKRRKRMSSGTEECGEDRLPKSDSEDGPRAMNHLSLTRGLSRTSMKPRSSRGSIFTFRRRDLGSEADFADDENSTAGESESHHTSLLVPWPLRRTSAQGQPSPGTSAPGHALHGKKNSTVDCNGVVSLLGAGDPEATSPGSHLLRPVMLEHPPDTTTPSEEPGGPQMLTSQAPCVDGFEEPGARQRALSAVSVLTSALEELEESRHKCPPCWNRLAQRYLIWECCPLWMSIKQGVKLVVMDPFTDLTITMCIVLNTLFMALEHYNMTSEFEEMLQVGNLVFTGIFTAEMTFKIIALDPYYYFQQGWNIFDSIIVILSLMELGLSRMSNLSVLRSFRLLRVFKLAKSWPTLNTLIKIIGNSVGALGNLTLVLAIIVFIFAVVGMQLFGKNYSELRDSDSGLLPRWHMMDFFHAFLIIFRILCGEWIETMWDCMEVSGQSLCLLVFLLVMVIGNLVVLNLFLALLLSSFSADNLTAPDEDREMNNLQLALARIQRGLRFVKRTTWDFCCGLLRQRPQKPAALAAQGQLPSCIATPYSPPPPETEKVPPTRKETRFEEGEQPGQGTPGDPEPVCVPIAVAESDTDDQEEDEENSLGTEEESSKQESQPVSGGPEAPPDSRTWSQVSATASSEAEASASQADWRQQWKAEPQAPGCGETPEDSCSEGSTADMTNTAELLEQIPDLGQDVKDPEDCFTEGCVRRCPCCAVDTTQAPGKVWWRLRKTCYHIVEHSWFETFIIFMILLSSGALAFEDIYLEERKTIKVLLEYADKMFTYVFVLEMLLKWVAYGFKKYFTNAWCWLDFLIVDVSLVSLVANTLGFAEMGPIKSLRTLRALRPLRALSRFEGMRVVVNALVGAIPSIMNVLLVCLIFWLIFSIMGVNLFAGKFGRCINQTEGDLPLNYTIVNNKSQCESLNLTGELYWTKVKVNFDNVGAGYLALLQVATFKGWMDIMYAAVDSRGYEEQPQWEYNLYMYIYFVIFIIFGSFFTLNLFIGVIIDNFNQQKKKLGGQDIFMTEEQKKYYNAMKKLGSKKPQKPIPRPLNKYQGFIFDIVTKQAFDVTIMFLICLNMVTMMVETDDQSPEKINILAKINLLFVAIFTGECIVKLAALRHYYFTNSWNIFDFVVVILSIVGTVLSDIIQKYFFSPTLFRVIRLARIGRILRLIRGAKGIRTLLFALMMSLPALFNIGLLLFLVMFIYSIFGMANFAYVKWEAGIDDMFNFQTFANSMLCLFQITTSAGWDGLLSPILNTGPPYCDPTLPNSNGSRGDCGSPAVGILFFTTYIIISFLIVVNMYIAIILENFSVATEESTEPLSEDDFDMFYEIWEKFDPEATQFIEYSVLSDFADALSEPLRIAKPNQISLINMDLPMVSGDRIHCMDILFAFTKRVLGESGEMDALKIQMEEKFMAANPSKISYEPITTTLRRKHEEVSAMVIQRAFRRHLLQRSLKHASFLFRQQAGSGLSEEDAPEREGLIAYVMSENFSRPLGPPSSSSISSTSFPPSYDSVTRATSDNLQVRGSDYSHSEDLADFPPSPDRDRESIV

IC50 [1] [µM]	IC50 [2] [µM]	SMILES	IC50 [3] [µM]
0.462	2.99	O=S(=O)(Nc1ncns1)c1ccc(NCc2ccccc2)c(Cl)c1 [Example 33, 4-(Benzylamino)-3-chloro-N-(1,2,4-thiadiazol-5-yl)benzenesulfonamide]	25.8
1.27	0.84	CC(CNc1ccc(S(=O)(=O)Nc2ncns2)cc1Cl)c1ccccc1 (stereo not drawn) [Example 34, 3-chloro-4-((2-phenylpropyl)amino)-N-(1,2,4-thiadiazol-5-yl)benzenesulfonamide]	4.91
0.839	0.301	O=S(=O)(Nc1ncns1)c1ccc(N[C@@H]2CCc3ccccc32)c(Cl)c1 [Example 35, (R)-3-chloro-4-((2,3-dihydro-1H-inden-1-yl)amino)-N-(1,2,4-thiadiazol-5-yl)benzenesulfonamide]	8.69
1.4	1.34	O=S(=O)(Nc1ncns1)c1ccc(N[C@H]2CCc3ccccc32)c(Cl)c1 [Example 36, (S)-3-chloro-4-((2,3-dihydro-1H-inden-1-yl)amino)-N-(1,2,4-thiadiazol-5-yl)benzenesulfonamide]	5.12

More lines, now with the values behind:

SMILES	IC50 [1] [µM]	IC50 [2] [µM]	IC50 [3] [µM]
C[C@H](Nc1cc(F)c(S(=O)(=O)Nc2nccs2)cc1Cl)c1cccc(Br)c1 [Example 7, (S)-4-((1-(3-bromophenyl)ethyl)amino)-5-chloro-2-fluoro-N-(thiazol-2-yl)benzenesulfonamide]	0.376	3	9.68
C[C@H](Nc1cc(F)c(S(=O)(=O)Nc2nccs2)cc1Cl)c1ccc(Cl)cc1 [Example 14, (S)-5-chloro-4-((1-(4-chlorophenyl)ethyl)amino)-2-fluoro-N-(thiazol-2-yl)benzenesulfonamide]	1.79	4.65	14.4
C[C@H](Nc1cc(F)c(S(=O)(=O)Nc2nccs2)cc1Cl)c1ccc2ccccc2c1 [Example 15, (S)-5-chloro-2-fluoro-4-((1-(naphthalen-2-yl)ethyl)amino)-N-(thiazol-2-yl)benzenesulfonamide]	7.15	9.41	23.6
N#Cc1ccccc1CNc1cc(F)c(S(=O)(=O)Nc2nccs2)cc1Cl [Example 17, 5-chloro-4-((2-cyanobenzyl)amino)-2-fluoro-N-(thiazol-2-yl)benzenesulfonamide]	0.308	0.494	8.46
O=S(=O)(Nc1cscn1)c1cc(Cl)c(NC2(c3ccccc3)CCC2)cc1F [Example 18, 5-chloro-2-fluoro-4-((1-phenylcyclobutyl)amino)-N-(thiazol-4-yl)benzenesulfonamide]	3.35	8.37	11.9
C[C@H](Nc1c(Cl)cc(S(=O)(=O)Nc2nccs2)cc1Cl)c1ccccc1F [Example 21, (S)-3,5-dichloro-4-((1-(2-fluorophenyl)ethyl)amino)-N-(thiazol-2-yl)benzenesulfonamide]	3.67	3.63	2.89
C[C@H](Nc1cc(F)c(S(=O)(=O)Nc2cccc(F)n2)cc1Cl)c1ccccc1Cl [Example 23, (S)-5-chloro-4-((1-(2-chlorophenyl)ethyl)amino)-2-fluoro-N-(6-fluoropyridin-2-yl)benzenesulfonamide]	1.52	5.4	4.09
C[C@H](Nc1ccc(S(=O)(=O)Nc2cscn2)cc1Cl)c1ccccc1 [Example 24, (S)-3-chloro-4-((1-phenylethyl)amino)-N-(thiazol-4-yl)benzenesulfonamide]	4.09	5.85	8.32
O=S(=O)(Nc1cscn1)c1cc(Cl)c(OC2CCc3c2cccc3C(F)(F)F)cc1F (stereo not drawn) [Example 29, 5-chloro-2-fluoro-N-(thiazol-4-yl)-4-((4-(trifluoromethyl)-2,3-dihydro-1H-inden-1-yl)oxy)benzenesulfonamide]	30	30	24.6
